Results as given in US20170368082A1, “FORMULATIONS OF BRINCIDOFOVIR” (priority 2016, published 2017).

Experiment: Blood and plasma pharmacokinetics of total radioactivity after IV or oral [^14C]brincidofovir
Assay type: in vivo, male Sprague Dawley and Long-Evans rats
Experimental: The study utilized 4 groups of male SD rats (albino), and 3 groups of male LE rats (pigmented); a total of 39 rats. All animals were obtained from Hilltop Lab Animals, Inc. (Scottdale, Pa.). Rats weighed between 214 and 265 g at dosing. Rats in Groups 1, 2, 3, and 4 were administered a single 2-hour (h) IV infusion of [^14C]brincidofovir at a target dose of 15 mg/kg. Rats in Group 5 were administered a single 2-h IV infusion of [^14C]brincidofovir at a target dose of 2 mg/kg. Rats in Group 6, and 7 were administered a single oral gavage administration of [^14C]brincidofovir at a target dose of 15 mg/kg. Three dosing formulations (one for high dose IV, one for low dose IV, and one for PO dose) were prepared at QPS on the day of dosing. The IV formulation for Groups 1, 2, 3, and 4 contained a vehicle of 10 mM sodium phosphate buffer in 5% dextrose solution at pH 8.0(±0.1). The IV formulation for Group 5 contained a vehicle of 16 mM sodium phosphate buffer in 5% dextrose solution at pH 8.0(±0.1), and the PO dosing formulation contained a vehicle of 12.5 mM sodium phosphate buffer at pH 8.0(±0.1). The IV dose formulation for Group 5 and the PO dose formulation for Groups 6 and 7 contained higher concentration of buffer so that the final buffer concentration was approximately 10 mM in all dose formulations.
Blood was collected from each animal in Group 2 (IV infusion) for plasma and blood analysis at the times listed below.
Terminal blood samples were collected by cardiac puncture into pre-labeled blood collection tubes that contained K2EDTA as an anticoagulant. A terminal sample (N=1 per time point) was collected at 0.5, 1, 2, 4, 8, 24, and 72 h after initiation of infusion and the volume was not limited. Triplicate weighed aliquots of blood (0.100 g) were removed and analyzed for total radioactivity using combustion followed by LSC. Blood aliquots were maintained at approximately 4° C. until analysis. The remaining blood samples were maintained on wet ice (approximately 4° C.) and then centrifuged to obtain plasma within 1 h of the blood collection time. Centrifuge settings were recorded in the study notebook. Duplicate aliquots of plasma (0.050 mL) were analyzed for radioactivity using direct counting by LSC, and residual plasma was stored at approximately −70° C. and was saved for possible future analysis under a separate study protocol. Residual red blood cells and the animal carcasses of Group 2 rats were discarded as radioactive waste.
Each rat was deeply anesthetized via isoflurane anesthesia, a blood sample was collected by cardiocentesis (approximately 2 mL) into tubes that contained K2EDTA as the anticoagulant, and the rat was euthanized by being frozen in a hexane/solid carbon dioxide bath for at least 15 min. The blood samples were maintained on wet ice (approximately 4° C.) and then centrifuged to obtain plasma within 1 h of the blood collection time. Centrifuge settings were recorded in the study notebook. Duplicate aliquots of plasma (0.050 mL) were analyzed for radioactivity using direct counting by LSC, and residual plasma was stored at approximately −70° C. and was saved for possible future analysis under a separate study protocol. Residual red blood cells were discarded as radioactive waste.
Triplicate weighed aliquots (˜0.100 g) of blood aliquots (Group 2 only) were combusted in the Packard Sample Oxidizer, followed by LSC analysis.
Urine (0.300 mL), and plasma (0.050 mL) specimens were thawed, if necessary, then aliquoted in duplicate by volume and analyzed by LSC. Volumes or weights of sample aliquots were documented in the study records. Ultima Gold scintillation fluid (5 mL, PerkinElmer) was added to each urine, and plasma aliquot, aliquot were mixed thoroughly, and then analyzed by LSC for radioactivity.

[1] = 0.5 h, SD rats Group 2, 15 mg/kg IV
[2] = 1 h, SD rats Group 2, 15 mg/kg IV
[3] = 2 h, SD rats Group 2, 15 mg/kg IV
[4] = 4 h, SD rats Group 2, 15 mg/kg IV
[5] = 8 h, SD rats Group 2, 15 mg/kg IV
[6] = 24 h, SD rats Group 2, 15 mg/kg IV
[7] = 72 h, SD rats Group 2, 15 mg/kg IV
[8] = Blood, SD rats Group 2, 15 mg/kg IV
[9] = Plasma, SD rats Group 2, 15 mg/kg IV
[10] = SD rats Group 2, 15 mg/kg 2-h IV
[11] = Plasma (LSC), PO 15 mg/kg, Group 7
[12] = Plasma (by LSC), 15 mg/kg, Group 7 vs Group 4

CCCCCCCCCCCCCCCCOCCCOP(=O)(O)CO[C@H](CO)Cn1ccc(N)nc1=O [[^14C]brincidofovir]
Plasma t1/2 (15 mg/kg PO): approximately 5 h | Blood Concentration [1]: 1.666 μg equiv/mL | Blood to Plasma Ratio [1]: 0.65 | Plasma Concentration [1]: 2557 ng/mL | Blood Concentration [2]: 3.017 μg equiv/mL | Blood to Plasma Ratio [2]: 0.65 | Plasma Concentration [2]: 4609 ng/mL | Blood Concentration [3]: 6.393 μg equiv/mL | Blood to Plasma Ratio [3]: 0.62 | Plasma Concentration [3]: 10297 ng/mL | Blood Concentration [4]: 3.845 μg equiv/mL | Blood to Plasma Ratio [4]: 0.72 | Plasma Concentration [4]: 5363 ng/mL | Blood Concentration [5]: 1.584 μg equiv/mL | Blood to Plasma Ratio [5]: 0.81 | Plasma Concentration [5]: 1961 ng/mL | Blood Concentration [6]: 0.294 μg equiv/mL | Blood to Plasma Ratio [6]: 1.26 | Plasma Concentration [6]: 234 ng/mL | Blood Concentration [7]: 0.057 μg equiv/mL | Blood to Plasma Ratio [7]: 1.27 | Plasma Concentration [7]: 45 ng/mL | Blood to Plasma Ratio (72 hours, 2 mg/kg IV): 1.42 | Blood to Plasma Ratio (72 hours, 15 mg/kg IV): 3.06 | AUCall [8]: 50.836 μg equiv-h/mL | AUCinf—obs [8]: 52.028 μg equiv-h/mL | AUClast [8]: 50.836 μg equiv-h/mL | Cmax [8]: 6.393 μg equiv/mL | Tmax [8]: 2 h | t1/2 [8]: 14.5 h | Blood to Plasma Ratio (Group 2 SD rats, 24 h): 1.26 | Blood to Plasma Ratio (Group 2 SD rats, 72 h): 1.27 | Blood:Plasma Ratio (Group 3/SD, IV 15 mg/kg, 2 h): 0.96 | Blood:Plasma Ratio (Group 3/SD, IV 15 mg/kg, 24 h): 1.23 | Blood:Plasma Ratio (Group 4/LE, IV 15 mg/kg, 1 h): 1.10 | Blood:Plasma Ratio (Group 4/LE, IV 15 mg/kg, 2 h): 1.08 | Blood:Plasma Ratio (Group 4/LE, IV 15 mg/kg, 4 h): 0.92 | Blood:Plasma Ratio (Group 4/LE, IV 15 mg/kg, 8 h): 1.39 | Blood:Plasma Ratio (Group 4/LE, IV 15 mg/kg, 24 h): 1.46 | Blood:Plasma Ratio (Group 4/LE, IV 15 mg/kg, 72 h): 3.06 | Blood:Plasma Ratio (Group 5/LE, IV 2 mg/kg, 2 h): 0.89 | Blood:Plasma Ratio (Group 5/LE, IV 2 mg/kg, 8 h): 1.03 | Blood:Plasma Ratio (Group 5/LE, IV 2 mg/kg, 24 h): 1.41 | Blood:Plasma Ratio (Group 5/LE, IV 2 mg/kg, 72 h): 1.25 | Blood:Plasma Ratio (Group 6/SD, PO 15 mg/kg, 2 h): 0.64 | Blood:Plasma Ratio (Group 6/SD, PO 15 mg/kg, 24 h): 0.78 | Blood:Plasma Ratio (Group 7/LE, PO 15 mg/kg, 1 h): 1.13 | Blood:Plasma Ratio (Group 7/LE, PO 15 mg/kg, 2 h): 0.98 | Blood:Plasma Ratio (Group 7/LE, PO 15 mg/kg, 4 h): 0.80 | Blood:Plasma Ratio (Group 7/LE, PO 15 mg/kg, 8 h): 0.76 | Blood:Plasma Ratio (Group 7/LE, PO 15 mg/kg, 24 h): 0.87 | Blood to Plasma Ratio (IV infusion, 1 to 24 hours after start): 0.89-1.46 | Blood to plasma ratio, median (IV or oral): 1.00 | Plasma AUClast (LE rats, 15 mg/kg PO): 21.0 μg equiv·h/mL | Plasma Cmax of total radioactivity (LE rats, 15 mg/kg PO): 1.5 μg equiv/mL | Plasma Tmax (LE rats, 15 mg/kg PO): 8 h | Plasma concentration at 24 h post-dose (LE rats, 15 mg/kg PO): 0.180 μg equiv/mL | Blood to Plasma Ratio (PO, LE rats, 1 h to 24 h): 0.76-1.13 | AUCall [9]: 64.448 μg equiv-h/mL | AUCinf—obs [9]: 65.292 μg equiv-h/mL | AUClast [9]: 64.448 μg equiv-h/mL | Cmax [9]: 10.297 μg equiv/mL | Tmax [9]: 2 h | t1/2 [9]: 13.0 h | Plasma AUClast [10]: 64.4 μg equiv·h/mL | Plasma Cmax of total radioactivity [10]: 10.3 μg equiv/mL | Plasma Tmax [10]: 2 h | Plasma concentration at 72 h post-dose [10]: 0.045 μg equiv/mL | Plasma t1/2 [10]: 13.0 h | Oral bioavailability of radioactivity (AUCall PO/AUCall IV) (blood): 48% | Radioactive bioavailability (oral): approximately 50% | Blood:Plasma Ratio (oral administration, up to 24 h (Groups 6-7)): 0.64-1.13 | Oral bioavailability of radioactivity (AUCall PO/AUCall IV) (plasma): 61%

CCCCCCCCCCCCCCCCOCCCOP(=O)(O)CO[C@H](CO)Cn1ccc(N)nc1=O [[^14C] brincidofovir]
AUCall [11]: 22.3885 μg equiv · h/g | AUCall Ratio (PO/IV) [12]: 0.62 | Cmax Ratio (PO/IV) [12]: 0.30 | AUCall (Plasma (by LSC), 2 h IV infusion 15 mg/kg, Group 4): 36.3690 μg equiv · h/g | Tissue Concentration (168 h) (Plasma (by LSC), 2 h IV infusion 15 mg/kg, Group 4, LLOQ 0.036): BQL | Tissue Concentration (168 h) (Plasma (by LSC), PO 15 mg/kg, Group 7, LLOQ 0.034): BQL

CCCCCCCCCCCCCCCCOCCCOP(=O)(O)CO[C@H](CO)Cn1ccc(N)nc1=O [[14C]brincidofovir]
AUCall [11]: 22.3885 μg equiv · h/g | Tmax [11]: 8 h
